Test results published in US20120108431A1, “PLANT GROWTH REGULATOR ADDITIVE” (TAMINCO, NAAMLOZE VENNOOTSCHAP, priority 2009, published 2012).

Legend:
Type in all cases: in vivo
Soybean = Soybean Trial 1, pot trial, foliar spray at V2-V3; settings: for Final Seed Yield at Harvest (g per pot): one plant per pot; for Rooting (0-9) + 28 Days: score 0-9, 28 days after spraying
Navy bean cv Primel = experiment: Navy bean Trial 2, pot trial, foliar spray at V2-V3; settings: for Final Seed Yield at Harvest (g per pot): one plant per pot; for Rooting (0-9) + 28 Days: score 0-9, 28 days after spraying
Winter wheat cv Limerick = experiment: Winter wheat Trial 3, pot trial, sprayed at GS23; settings: for Total No of Shoots/Plant at GS33 / Total No of “Large” Shoots/Plant at GS33 / Rooting (0-9) + 28 Days / Final Seed Yield + % / Rooting + % / Total No of Shoots/Plant + % / Total No of “Large” Shoots/Plant + %: winter wheat pots; for Rooting (0-9) + 28 Days: score 0-9, 28 days after spraying; for Final Seed Yield + % / Rooting + % / Total No of Shoots/Plant + % / Total No of “Large” Shoots/Plant + %: increase over the line given as 0 (untreated or growth regulator alone); for Final Seed Yield at Harvest (g per pot): winter wheat, eight plants per pot
Procedure: The applied concentration of chemical can vary widely depending on the water volume applied to plants as well as other factors such as plant age and size, and plant sensitivity to the product. […] The rate of other components such as spreaders and stickers can be 50-200 ml per ha. C. […] Sprayed: 10 June, at GS23 (early-mid tillering). Plants were scored/assessed at GS33 on 12 July, with other measurements at crop maturity.

[1] = soybean, increase over the line given as 0 (untreated or growth regulator alone)
[2] = navy bean, increase over the line given as 0 (untreated or growth regulator alone)

CC(=O)Nc1ccc(O)cc1 [AC, N-(4-hydroxypheyl)acetamide]
No of Large Pod Bearing Branches/Plant at Harvest (Soybean; soybean): 1.0
Final Seed Yield at Harvest (g per pot) (Soybean; soybean): 34.0 g per pot
Plant Biomass Score (0-9) at Harvest (Soybean; soybean): 5.2
Rooting (0-9) + 28 Days (Soybean; soybean): 4.2
Final Seed Yield + % (Soybean; [1]): 2%
No of Large Pod Bearing Branches/Plant + % (Soybean; [1]): 0%
Plant Biomass Score + % (Soybean; [1]): 0%
Rooting + % (Soybean; [1]): 0%
No of Large Pod Bearing Branches/Plant at Harvest (Navy bean cv Primel; navy bean): 1.0
Final Seed Yield at Harvest (g per pot) (Navy bean cv Primel; navy bean): 52.4 g per pot
Plant Biomass Score (0-9) at Harvest (Navy bean cv Primel; navy bean): 5.2
Rooting (0-9) + 28 Days (Navy bean cv Primel; navy bean): 7.0
Final Seed Yield + % (Navy bean cv Primel; [2]): 8%
No of Large Pod Bearing Branches/Plant + % (Navy bean cv Primel; [2]): 0%
Plant Biomass Score + % (Navy bean cv Primel; [2]): 0%
Rooting + % (Navy bean cv Primel; [2]): 0%
Total No of Shoots/Plant at GS33 (Winter wheat cv Limerick): 3.0
Total No of “Large” Shoots/Plant at GS33 (Winter wheat cv Limerick): 2.0
Rooting (0-9) + 28 Days (Winter wheat cv Limerick): 5.4
Final Seed Yield + % (Winter wheat cv Limerick): 0%
Rooting + % (Winter wheat cv Limerick): 0%
Total No of Shoots/Plant + % (Winter wheat cv Limerick): 0%
Total No of “Large” Shoots/Plant + % (Winter wheat cv Limerick): 0%
Final Seed Yield at Harvest (g per pot) (Winter wheat cv Limerick): 33.9 g per pot

Nc1ccccc1C(=O)O [AN, anthranilic acid]
Final Seed Yield + % (Soybean; in vivo): 5%
Rooting + % (Soybean; in vivo): 2%
No of Large Pod Bearing Branches/Plant at Harvest (Soybean; soybean): 1.0
Final Seed Yield at Harvest (g per pot) (Soybean; soybean): 34.8 g per pot
Plant Biomass Score (0-9) at Harvest (Soybean; soybean): 5.2
Rooting (0-9) + 28 Days (Soybean; soybean): 4.3
No of Large Pod Bearing Branches/Plant + % (Soybean; [1]): 0%
Plant Biomass Score + % (Soybean; [1]): 0%
Final Seed Yield + % (Navy bean cv Primel; in vivo): 7%
Rooting + % (Navy bean cv Primel; in vivo): 3%
No of Large Pod Bearing Branches/Plant at Harvest (Navy bean cv Primel; navy bean): 1.0
Final Seed Yield at Harvest (g per pot) (Navy bean cv Primel; navy bean): 52.0 g per pot
Plant Biomass Score (0-9) at Harvest (Navy bean cv Primel; navy bean): 5.2
Rooting (0-9) + 28 Days (Navy bean cv Primel; navy bean): 7.2
No of Large Pod Bearing Branches/Plant + % (Navy bean cv Primel; [2]): 0%
Plant Biomass Score + % (Navy bean cv Primel; [2]): 0%
Total No of Shoots/Plant at GS33 (Winter wheat cv Limerick): 3.0
Total No of “Large” Shoots/Plant at GS33 (Winter wheat cv Limerick): 2.0
Rooting (0-9) + 28 Days (Winter wheat cv Limerick): 5.4
Final Seed Yield + % (Winter wheat cv Limerick): 0%
Rooting + % (Winter wheat cv Limerick): 0%
Total No of Shoots/Plant + % (Winter wheat cv Limerick): 0%
Total No of “Large” Shoots/Plant + % (Winter wheat cv Limerick): 0%
Final Seed Yield at Harvest (g per pot) (Winter wheat cv Limerick): 33.6 g per pot

CC1(C)CCC(Cc2ccc(Cl)cc2)C1(O)Cn1cncn1 (stereo not drawn) [MET2, Metconazole]
No of Large Pod Bearing Branches/Plant at Harvest (Soybean; soybean): 1.0
Final Seed Yield at Harvest (g per pot) (Soybean; soybean): 36.6 g per pot
Plant Biomass Score (0-9) at Harvest (Soybean; soybean): 6.0
Rooting (0-9) + 28 Days (Soybean; soybean): 5.2
Final Seed Yield + % (Soybean; [1]): 0%
No of Large Pod Bearing Branches/Plant + % (Soybean; [1]): 0%
Plant Biomass Score + % (Soybean; [1]): 0%
Rooting + % (Soybean; [1]): 0%
No of Large Pod Bearing Branches/Plant at Harvest (Navy bean cv Primel; navy bean): 1.2
Final Seed Yield at Harvest (g per pot) (Navy bean cv Primel; navy bean): 57.4 g per pot
Plant Biomass Score (0-9) at Harvest (Navy bean cv Primel; navy bean): 5.1
Rooting (0-9) + 28 Days (Navy bean cv Primel; navy bean): 7.0
Final Seed Yield + % (Navy bean cv Primel; [2]): 0%
No of Large Pod Bearing Branches/Plant + % (Navy bean cv Primel; [2]): 0%
Plant Biomass Score + % (Navy bean cv Primel; [2]): 0%
Rooting + % (Navy bean cv Primel; [2]): 0%
Total No of Shoots/Plant at GS33 (Winter wheat cv Limerick): 3.8
Total No of “Large” Shoots/Plant at GS33 (Winter wheat cv Limerick): 2.6
Rooting (0-9) + 28 Days (Winter wheat cv Limerick): 6.0
Final Seed Yield + % (Winter wheat cv Limerick): 0%
Rooting + % (Winter wheat cv Limerick): 0%
Total No of Shoots/Plant + % (Winter wheat cv Limerick): 0%
Total No of “Large” Shoots/Plant + % (Winter wheat cv Limerick): 0%
Final Seed Yield at Harvest (g per pot) (Winter wheat cv Limerick): 36.0 g per pot

CC1(C)CCC(Cc2ccc(Cl)cc2)C1(O)Cn1cncn1 (stereo not drawn) [MET, Metconazole]
No of Large Pod Bearing Branches/Plant at Harvest (Soybean; soybean): 1.1
Final Seed Yield at Harvest (g per pot) (Soybean; soybean): 36.6 g per pot
Plant Biomass Score (0-9) at Harvest (Soybean; soybean): 6.0
Rooting (0-9) + 28 Days (Soybean; soybean): 5.2
Final Seed Yield + % (Soybean; [1]): 0%
No of Large Pod Bearing Branches/Plant + % (Soybean; [1]): 0%
Plant Biomass Score + % (Soybean; [1]): 0%
Rooting + % (Soybean; [1]): 0%
No of Large Pod Bearing Branches/Plant at Harvest (Navy bean cv Primel; navy bean): 1.2
Final Seed Yield at Harvest (g per pot) (Navy bean cv Primel; navy bean): 57.2 g per pot
Plant Biomass Score (0-9) at Harvest (Navy bean cv Primel; navy bean): 5.2
Rooting (0-9) + 28 Days (Navy bean cv Primel; navy bean): 7.0
Final Seed Yield + % (Navy bean cv Primel; [2]): 0%
No of Large Pod Bearing Branches/Plant + % (Navy bean cv Primel; [2]): 0%
Plant Biomass Score + % (Navy bean cv Primel; [2]): 0%
Rooting + % (Navy bean cv Primel; [2]): 0%
Total No of Shoots/Plant at GS33 (Winter wheat cv Limerick): 3.8
Total No of “Large” Shoots/Plant at GS33 (Winter wheat cv Limerick): 2.6
Rooting (0-9) + 28 Days (Winter wheat cv Limerick): 6.0
Final Seed Yield + % (Winter wheat cv Limerick): 0%
Rooting + % (Winter wheat cv Limerick): 0%
Total No of Shoots/Plant + % (Winter wheat cv Limerick): 0%
Total No of “Large” Shoots/Plant + % (Winter wheat cv Limerick): 0%
Final Seed Yield at Harvest (g per pot) (Winter wheat cv Limerick): 36.2 g per pot

CCOC(=O)C1CC(=O)C(=C(O)C2CC2)C(=O)C1 (stereo not drawn) [MOD, Trinexapac-ethyl]
No of Large Pod Bearing Branches/Plant at Harvest (Soybean; soybean): 1.0
Final Seed Yield at Harvest (g per pot) (Soybean; soybean): 36.2 g per pot
Plant Biomass Score (0-9) at Harvest (Soybean; soybean): 6.2
Rooting (0-9) + 28 Days (Soybean; soybean): 4.4
Final Seed Yield + % (Soybean; [1]): 0%
No of Large Pod Bearing Branches/Plant + % (Soybean; [1]): 0%
Plant Biomass Score + % (Soybean; [1]): 0%
Rooting + % (Soybean; [1]): 0%
No of Large Pod Bearing Branches/Plant at Harvest (Navy bean cv Primel; navy bean): 1.2
Final Seed Yield at Harvest (g per pot) (Navy bean cv Primel; navy bean): 56.1 g per pot
Plant Biomass Score (0-9) at Harvest (Navy bean cv Primel; navy bean): 5.6
Rooting (0-9) + 28 Days (Navy bean cv Primel; navy bean): 7.2
Final Seed Yield + % (Navy bean cv Primel; [2]): 0%
No of Large Pod Bearing Branches/Plant + % (Navy bean cv Primel; [2]): 0%
Plant Biomass Score + % (Navy bean cv Primel; [2]): 0%
Rooting + % (Navy bean cv Primel; [2]): 0%
Total No of Shoots/Plant at GS33 (Winter wheat cv Limerick): 3.8
Total No of “Large” Shoots/Plant at GS33 (Winter wheat cv Limerick): 2.6
Rooting (0-9) + 28 Days (Winter wheat cv Limerick): 6.4
Final Seed Yield + % (Winter wheat cv Limerick): 0%
Rooting + % (Winter wheat cv Limerick): 0%
Total No of Shoots/Plant + % (Winter wheat cv Limerick): 0%
Total No of “Large” Shoots/Plant + % (Winter wheat cv Limerick): 0%
Final Seed Yield at Harvest (g per pot) (Winter wheat cv Limerick): 35.4 g per pot
